Measured values: patent US20100317715A1, “METHODS FOR TREATING NEUROPSYCHIATRIC CONDITIONS” (priority 2007, published 2010)
Where two headings read alike, the source gives them in different places.

What was measured:
PAK7 = PAK7 (Homo sapiens, UniProt Q9P286); test: Competitive binding assay (phage-displayed kinase vs immobilized staurosporine bait), PAK7; details: PAK Inhibitor Affinity Assay
PAK1 = PAK1 (Homo sapiens, UniProt Q13153); test: Competitive binding assay (phage-displayed kinase vs immobilized staurosporine bait), PAK1
PAK6 = PAK6 (Homo sapiens, UniProt Q9NQU5); test: biochemical; type: binding; details: PAK Inhibitor Affinity Assay
PAK4 = PAK4 (Homo sapiens, UniProt O96013); test: Competitive binding assay (phage-displayed kinase vs immobilized staurosporine bait), PAK4; details: PAK Inhibitor Affinity Assay
PAK2 = PAK2 (Homo sapiens, UniProt Q13177); test: Competitive binding assay (phage-displayed kinase vs immobilized staurosporine bait), PAK2
Chain of PAK2 (Q13177 whole entry): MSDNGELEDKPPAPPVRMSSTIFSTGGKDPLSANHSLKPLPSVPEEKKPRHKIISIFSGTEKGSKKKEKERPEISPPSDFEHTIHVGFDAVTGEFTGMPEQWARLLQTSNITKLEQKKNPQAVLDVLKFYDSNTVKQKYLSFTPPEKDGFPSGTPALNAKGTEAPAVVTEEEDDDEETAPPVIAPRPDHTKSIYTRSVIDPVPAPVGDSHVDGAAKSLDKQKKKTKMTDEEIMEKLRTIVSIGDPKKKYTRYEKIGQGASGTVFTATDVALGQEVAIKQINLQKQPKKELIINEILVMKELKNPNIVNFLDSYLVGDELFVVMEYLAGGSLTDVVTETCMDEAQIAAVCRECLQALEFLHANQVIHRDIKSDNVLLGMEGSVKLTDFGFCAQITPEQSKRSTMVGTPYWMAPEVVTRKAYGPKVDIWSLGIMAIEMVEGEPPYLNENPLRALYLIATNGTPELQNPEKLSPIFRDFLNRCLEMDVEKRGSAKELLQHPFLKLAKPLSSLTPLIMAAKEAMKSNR

Chain of PAK1 (Q13153 whole entry): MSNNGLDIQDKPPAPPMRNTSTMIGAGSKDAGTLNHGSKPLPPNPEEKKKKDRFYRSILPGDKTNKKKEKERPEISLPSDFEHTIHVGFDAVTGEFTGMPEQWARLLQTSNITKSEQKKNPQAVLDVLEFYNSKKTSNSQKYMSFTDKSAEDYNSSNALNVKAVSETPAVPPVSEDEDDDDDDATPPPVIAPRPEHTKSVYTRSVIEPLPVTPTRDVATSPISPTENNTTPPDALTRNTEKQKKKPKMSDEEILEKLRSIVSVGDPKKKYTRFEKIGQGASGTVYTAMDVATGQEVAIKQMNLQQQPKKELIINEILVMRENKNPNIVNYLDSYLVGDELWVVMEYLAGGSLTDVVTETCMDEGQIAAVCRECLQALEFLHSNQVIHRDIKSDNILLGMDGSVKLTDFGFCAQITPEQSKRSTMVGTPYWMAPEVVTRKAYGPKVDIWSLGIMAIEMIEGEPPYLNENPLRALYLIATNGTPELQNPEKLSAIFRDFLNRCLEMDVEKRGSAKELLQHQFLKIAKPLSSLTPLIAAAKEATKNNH
Chain of PAK6 (Q9NQU5 whole entry): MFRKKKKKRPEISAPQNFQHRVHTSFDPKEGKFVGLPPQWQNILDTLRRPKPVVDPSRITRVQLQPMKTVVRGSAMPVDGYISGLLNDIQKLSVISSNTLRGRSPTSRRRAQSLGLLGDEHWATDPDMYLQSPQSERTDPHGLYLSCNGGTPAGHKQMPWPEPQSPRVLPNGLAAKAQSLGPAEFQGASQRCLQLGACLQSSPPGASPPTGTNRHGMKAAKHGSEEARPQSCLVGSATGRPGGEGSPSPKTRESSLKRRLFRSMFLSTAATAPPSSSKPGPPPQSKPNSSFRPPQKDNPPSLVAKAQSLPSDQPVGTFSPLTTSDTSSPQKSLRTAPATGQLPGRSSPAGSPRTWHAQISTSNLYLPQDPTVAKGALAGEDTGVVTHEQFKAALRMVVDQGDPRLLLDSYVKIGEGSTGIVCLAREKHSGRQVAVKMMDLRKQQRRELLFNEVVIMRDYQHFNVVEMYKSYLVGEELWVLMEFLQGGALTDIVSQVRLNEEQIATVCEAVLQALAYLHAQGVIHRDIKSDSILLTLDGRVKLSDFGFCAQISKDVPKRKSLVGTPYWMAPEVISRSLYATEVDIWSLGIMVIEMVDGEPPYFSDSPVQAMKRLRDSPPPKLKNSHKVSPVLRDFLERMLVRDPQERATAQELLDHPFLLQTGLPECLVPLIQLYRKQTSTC
Chain of PAK4 (O96013 whole entry): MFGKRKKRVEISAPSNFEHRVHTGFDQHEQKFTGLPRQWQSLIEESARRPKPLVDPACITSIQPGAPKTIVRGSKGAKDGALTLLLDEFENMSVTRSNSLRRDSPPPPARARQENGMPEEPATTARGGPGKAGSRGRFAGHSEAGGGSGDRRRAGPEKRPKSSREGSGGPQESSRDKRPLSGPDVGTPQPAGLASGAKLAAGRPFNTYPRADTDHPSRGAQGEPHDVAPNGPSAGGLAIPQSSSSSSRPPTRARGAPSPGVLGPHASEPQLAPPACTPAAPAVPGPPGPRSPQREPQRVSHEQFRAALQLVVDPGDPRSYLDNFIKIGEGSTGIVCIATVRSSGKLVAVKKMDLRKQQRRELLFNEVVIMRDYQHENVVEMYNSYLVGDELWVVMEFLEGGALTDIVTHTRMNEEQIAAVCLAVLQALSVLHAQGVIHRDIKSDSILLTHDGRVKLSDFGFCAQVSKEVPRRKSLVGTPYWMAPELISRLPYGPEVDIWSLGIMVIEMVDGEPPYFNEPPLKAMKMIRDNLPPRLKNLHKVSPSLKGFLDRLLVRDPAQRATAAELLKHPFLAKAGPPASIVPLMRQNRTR
Chain of PAK7 (Q9P286 whole entry): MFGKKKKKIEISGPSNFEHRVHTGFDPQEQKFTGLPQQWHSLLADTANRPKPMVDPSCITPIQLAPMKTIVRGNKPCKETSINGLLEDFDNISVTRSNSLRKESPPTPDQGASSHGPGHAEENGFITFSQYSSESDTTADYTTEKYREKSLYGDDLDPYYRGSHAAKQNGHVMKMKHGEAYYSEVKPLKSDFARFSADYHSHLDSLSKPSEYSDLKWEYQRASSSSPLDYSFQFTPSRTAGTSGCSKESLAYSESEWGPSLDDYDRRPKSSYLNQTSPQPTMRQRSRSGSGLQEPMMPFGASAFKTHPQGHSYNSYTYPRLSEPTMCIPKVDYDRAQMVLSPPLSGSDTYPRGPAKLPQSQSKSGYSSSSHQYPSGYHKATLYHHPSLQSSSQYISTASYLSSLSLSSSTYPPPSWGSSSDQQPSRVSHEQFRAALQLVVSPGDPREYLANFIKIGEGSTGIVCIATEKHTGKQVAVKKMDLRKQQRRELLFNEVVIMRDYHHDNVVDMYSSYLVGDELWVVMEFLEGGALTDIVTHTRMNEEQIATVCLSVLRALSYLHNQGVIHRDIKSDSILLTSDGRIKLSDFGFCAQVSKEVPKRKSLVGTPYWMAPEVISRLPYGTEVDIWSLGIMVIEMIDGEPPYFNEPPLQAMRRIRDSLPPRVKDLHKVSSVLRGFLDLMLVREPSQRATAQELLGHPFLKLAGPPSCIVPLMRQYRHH

| SMILES | Kd (PAK7) | Kd (PAK1; PAK Inhibitor Affinity Assay, read-out: Kd PAK1) | Kd (PAK6) | Kd (PAK4) | Kd (PAK2; PAK Inhibitor Affinity Assay, read-out: Kd PAK2) | Kd (PAK1) | Kd (PAK2) |
| --- | --- | --- | --- | --- | --- | --- | --- |
| CCOc1cc2ncc(C#N)c(Nc3ccc(F)c(Cl)c3)c2cc1NC(=O)/C=C/CN(C)C [EKB-569] | ≥ 10 µM | < 5 µM | ≥ 10 µM | ≥ 10 µM | ≥ 10 µM |  |  |
| Nc1nc(Nc2ccc(S(N)(=O)=O)cc2)nn1C(=O)c1c(F)cccc1F [JNJ-7706621] |  |  | < 5 µM |  |  | ≥ 10 µM | ≥ 10 µM |
